Measured values: publication PMC12529164, “Design, Synthesis, Structure–Activity Relationships, and Preliminary Anticancer Properties of Menthol-Modified Coumarin Esters and 3,4-Dihydrocoumarin Derivatives” (ACS Omega, 2025)
Read-outs that look alike come from different tables or passages of the source.

Tests used:
SW620 [1] = test: MTT cytotoxicity assay; assay type: cell-based, human; settings: for SI SW620: SI = IC50 for normal cell line (HaCaT)/IC50 cancer cell line; for IC50: SW-620, MTT, 72 h, human metastatic colon cancer
In short: (§1)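 ATCC lines grown in 10% FBS medium (RPMI 1640 for PC3, MEM for SW480/SW620, DMEM for MDA-MB-231) at 37 °C/5% CO2. Cells seeded at 1 × 10^4 per well, exposed to compounds for 72 h; viability read by MTT.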

MDA-MB-231 = test: MTT cytotoxicity assay; assay type: cell-based, human; settings: for IC50: MDA-MB-231, MTT, 72 h, human breast adenocarcinoma; for SI MDA-MB-231: SI = IC50 for normal cell line (HaCaT)/IC50 cancer cell line
In short: as §1

SW480 = test: MTT cytotoxicity assay; assay type: cell-based, human; settings: for SI SW480: SI = IC50 for normal cell line (HaCaT)/IC50 cancer cell line; for IC50: SW480, MTT, 72 h, human primary colon cancer
In short: as §1

PC3 [2] = test: MTT cytotoxicity assay; assay type: cell-based, human; settings: for IC50: PC-3, MTT, 72 h, human metastatic prostate cancer; for SI PC3: SI = IC50 for normal cell line (HaCaT)/IC50 cancer cell line
In short: as §1

[3] = test system: tested cancer cell lines (SW480, SW620, PC3, MDA-MB-231); test: MTT assay, mean over tested cancer cell lines; assay type: cell-based; settings: Homo sapiens, mean of the four cancer cell lines
Description: They were added to 96-well plates with seeded normal and cancer cells (1 × 10^4 cells per well) and incubated for 72 h. MTT analysis was performed according to a previous study. […]

HaCaT [4] = test: Annexin V-FITC/PI flow cytometry; assay type: cell-based, human; settings: compound at IC50, 72 h, mean
Description: (§2) The apoptotic and necrotic cells treated with derivatives 2b, 4a, 4b were detected using FITC Annexin V Apoptosis Detection Kit I (BD Biosciences Pharmingen). Briefly, cells (2 × 10^5 cells/well) were seeded in 6-well plates in supplemented medium. […] Then cells were harvested, washed, and labeled with Annexin V-FITC and propidium iodide (PI) according to the manufacturer’s protocol. The stained cells were analyzed by flow cytometry. The cells were identified as early apoptotic (Annexin V+/PI−) or late apoptotic/necrotic (Annexin V+/PI+).

PC3 [5] = test: Annexin V-FITC/PI flow cytometry; assay type: cell-based, human; settings: PC3, compound at IC50, 72 h, mean
Description: as §2

HaCaT [6] = test: MTT cytotoxicity assay, normal cells; assay type: cell-based; settings: 72 h, human immortal keratinocytes (normal cells); for IC50: HaCaT
HaCaT [7] = test: Trypan blue assay; assay type: cell-based, human; settings: compound at IC50, 72 h; for cell number: mean; for reduction of number of cells: vs control
Description: (§3) The total cell count was assessed by trypan blue exclusion dye assay using automated cell counter (Countess Invitrogen). Untreated cells were used as the control. Each experiment was repeated 5 times.

PC3 [8] = test: Trypan blue assay; assay type: cell-based, human; settings: PC3, compound at IC50, 72 h
Description: as §3

Trypan blue assay = assay type: cell-based, human; settings: human, HaCaT cells, compound at IC50, 72 h, mean
Description: as §3

IL-6 in HaCaT cells = test: Interleukin-6 ELISA; assay type: cell-based, human; settings: compound at IC50, 72 h; for IL-6 concentration: ELISA
Description: (§4) The concentration of Interleukin-6 (IL-6) was measured in cell culture supernatant using Interleukin IL-6 High Sensitivity ELISA kit (Diaclon SAS, Besancon Cedex, France). Cells (1 × 10^5 cells/well) were seeded in 12-well plates with medium for 24 h. […] After this incubation, the supernatants were collected and 100 μL of supernatant samples, control solutions and blank were added to precoated ELISA plate with the preceding plotting of the standard curve. Then 50 μL of diluted biotinylated antihuman interleukin-6 antibody was added and incubated at room temperature for 3 h. Afterward, the plate was washed three times and 100 μL streptavidin-HRP solution was added to each well. After 30 min incubation, the plate was washed again three times and 100 μL of tetramethylbenzidine (TMB) solution was added to each well. The plate was incubated for 15 min in the dark. The reaction was stopped by adding 100 μL of H2SO4 solution. The absorbance was estimated using a spectrophotometer at 450 nm (Microplate Spectrophotometer Thermo Scientific Multiskan GO).

IL-6 in PC3 cells = test: Interleukin-6 ELISA; assay type: cell-based, human; settings: PC3, compound at IC50, 72 h
Description: as §4

SW620 [9] = test: Annexin V-FITC/PI flow cytometry; assay type: cell-based, human; settings: SW620, compound at IC50, 72 h, mean
Description: as §2

SW620 [10] = test: Trypan blue assay; assay type: cell-based, human; settings: SW620, compound at IC50, 72 h
Description: as §3

IL-6 in SW620 cells = test: Interleukin-6 ELISA; assay type: cell-based, human; settings: SW620, compound at IC50, 72 h
Description: as §4

[11] = read-out: average IC50 against tested cancer cell lines

Structure (SMILES)	SI SW620 (SW620 [1])	IC50 (SW620 [1])	IC50 (MDA-MB-231)	SI MDA-MB-231 (MDA-MB-231)	SI SW480 (SW480)	IC50 (SW480)	IC50 (PC3 [2])	SI PC3 (PC3 [2])	IC50 [3, 11]	Early apoptosis [%] (HaCaT [4])	Late apoptosis [%] (HaCaT [4])	Necrosis [%] (HaCaT [4])	IC50 (HaCaT [6])	cell number (HaCaT [7])	reduction of number of cells (HaCaT [7])	viability at 72 h (Trypan blue assay)	IL-6 concentration (IL-6 in HaCaT cells)	also measured
COc1cccc2c1OC(=O)C(C(=O)O[C@@H]1C[C@H](C)CC[C@H]1C(C)C)C2P(=O)(c1ccccc1)c1ccccc1 (mixture of isomers) [Compound 4b, (1R,2S,5R)-2-Isopropyl-5-methylcyclohexyl-4-(diphenylphosphoryl)-8-methoxy-2-oxochromane-3-carboxylate]	1.39	19.8 ± 0.63 µM	47.6 ± 4.73 µM	0.58	0.73	37.4 ± 2.45 µM	9.9 ± 1.42 µM	2.78	28.7 µM	2.55%	0.85%	0.45%	27.6 ± 3.12 µM	5.23 x106	16.6%	98.3%	10.5 ± 0.94 pg/mL	IC50 ([3]; Table S7, >100 entered as 100, read-out: mean anticancer IC50): 28.7 µM; Early apoptosis [%] (PC3 [5]): 10.50%; Late apoptosis [%] (PC3 [5]): 3.90%; Necrosis [%] (PC3 [5]): 0.20%; cell number (PC3 [8]; mean): 4.26 x106; viability (%) (PC3 [8]; mean): 94%; reduction of number of live cells (PC3 [8]; vs control): 35.3%; reduction of IL-6 concentration (IL-6 in HaCaT cells; vs control): did not alter IL-6 secretion; IL-6 concentration (IL-6 in PC3 cells; ELISA): 0.9 ± 0.03 pg/mL; reduction of IL-6 level (IL-6 in PC3 cells; vs control): 79.2%
CCOP(=O)(OCC)c1cc2cccc(OC)c2oc1=O [Compound 2b, Diethyl (8-Methoxy-2-oxo-2H-chromen-3-yl)phosphonate]	9.8	10.2 ± 1.63 µM	> 100 µM	1	1	> 100 µM	> 100 µM	1	> 77.5 µM	2.60%	1.30%	0.30%	> 100 µM	5.66 x106	below 10%	94.7%	11.3 ± 0.59 pg/mL	Necrosis [%] (SW620 [9]): 0.60%; IC50 HaCaT (HaCaT [6]): did not show any cytotoxic effects; cell number (SW620 [10]; mean): 2.26 x106; viability (%) (SW620 [10]; mean): 98.66%; reduction of number of live cells (SW620 [10]; vs control): 36.4%; increase in interleukin level (IL-6 in HaCaT cells; vs control): 10.7%; IL-6 concentration (IL-6 in SW620 cells; ELISA): 2.1 ± 0.22 pg/mL; reduction of IL-6 level (IL-6 in SW620 cells; vs control): 33.5%
